In US20240166652A1, “MODULATORS OF THE INTEGRATED STRESS PATHWAY” (Calico Life Sciences LLC, priority 2017, published 2024):

Tested on: ATF4 luciferase reporter in HEK293T cells
Experiment: ATF4-Luc assay (ATF4 luciferase reporter, tunicamycin-treated HEK293T cells)
Format: cell-based, human
Conditions: Homo sapiens, HEK-293T; HEK293T cells carrying the ATF4 luciferase reporter, 1 μg/mL tunicamycin, 7 hours

SMILES	EC50
O=C(/C=C/c1ccc(OC(F)(F)F)cn1)NC12CCC(NC(=O)COc3ccc(Cl)c(F)c3)(C1)C2 [Compound 425, (2E)-N-{4-[2-(4-chloro-3-fluorophenoxy)acetamido]bicyclo[2.1.1]hexan-1-yl}-3-[5-(trifluoromethoxy)pyridin-2-yl]prop-2-enamide]	500 to 2000 nM
O=C(COc1ccc(Cl)c(F)c1)NC12CCC(NC(=O)COc3ccc(Cl)c(F)c3)(CC1)[C@H](C(=O)O)C2 [Compound 559, (2R)-1,4-bis[2-(4-chloro-3-fluorophenoxy)acetamido]bicyclo[2.2.2]octane-2-carboxylic Acid]	500 to 2000 nM
Cc1ccc(OCC(=O)NC23CCC(NC(=O)COc4ccc(Cl)c(F)c4)(CC2)C[C@@H]3O)cc1 [Compound 521, 2-(4-chloro-3-fluorophenoxy)-N-{(3S)-3-hydroxy-4-[2-(4-methylphenoxy)acetamido]bicyclo[2.2.2]octan-1-yl}acetamide]	< 10 nM
O=C(COc1ccc(Cl)c(F)c1)NC12CCC(NC(=O)COc3ccc(C(F)(F)F)nc3)(CC1)[C@H](O)C2 (single isomer, unassigned) [Compound 303]	10 to 50 nM
COc1cc(Cl)ccc1OCC(=O)NC12CC(NC(=O)COc3ccc(Cl)c(F)c3)(C1)C2 [Compound 412, 2-(4-chloro-3-fluorophenoxy)-N-{3-[2-(4-chloro-2-methoxyphenoxy)acetamido]bicyclo[1.1.1]pentan-1-yl}acetamide]	50 to 250 nM
Cc1ccnc(OCC(=O)NC23CCC(NC(=O)COc4ccc(Cl)c(F)c4)(CC2)C[C@@H]3O)n1 [Compound 753, 2-(4-chloro-3-fluorophenoxy)-N-[(3S)-3-hydroxy-4-{2-[(4-methylpyrimidin-2-yl)oxy]acetamido}bicyclo[2.2.2]octan-1-yl]acetamide]	250 to 500 nM
O=C(COc1ccc(C(F)(F)F)nc1)NC12CCC(NC(=O)COc3ccc(C(F)(F)F)nc3)(CC1)[C@@H](O)C2 [Compound 541, N,N′-[(2S)-2-hydroxybicyclo[2.2.2]octane-1,4-diyl]bis(2-{[6-(trifluoromethyl)pyridin-3-yl]oxy}acetamide)]	10 to 50 nM
Cc1ccccc1CS(=O)(=O)NC12CC(NC(=O)COc3ccc(Cl)c(F)c3)(C1)C2 [Compound 482, 2-(4-chloro-3-fluorophenoxy)-N-(3-{[(2-methylphenyl)methanesulfonyl]amino}bicyclo[1.1.1]pentan-1-yl)acetamide]	> 2000 nM
O=C(COc1ccc(Cl)c(F)c1)NC12CCC(N[C@@H](CCOc3ccc(Cl)cc3)C(=O)O)(CC1)C[C@@H]2O (single isomer, unassigned) [Compound 694]	250 to 500 nM
O=C(COc1ccc(C(F)(F)F)nc1)NC12CCC(NC(=O)COc3ccc(Cl)c(Cl)c3)(C1)C2 [Compound 196, 2-(3,4-dichlorophenoxy)-N-[4-(2-{[6-(trifluoromethyl)pyridin-3-yl]oxy}acetamido)bicyclo[2.1.1]hexan-1-yl]acetamide]	10 to 50 nM
O=C(COc1ccc(Cl)c(F)c1)NC12CC(NC(=O)COc3cnc4ccoc4c3)(C1)C2 [Compound 255, 2-(4-chloro-3-fluorophenoxy)-N-(3-{2-[(furo[3,2-b]pyridin-6-yl)oxy]acetamido}bicyclo[1.1.1]pentan-1-yl)acetamide]	50 to 250 nM
O=C(COc1ccc(Cl)c(F)c1)NC12CC(N(CCO)CCCOc3ccc(Cl)c(F)c3)(C1)C2 [Compound 692, 2-(4-chloro-3-fluorophenoxy)-N-(3-{[3-(4-chloro-3-fluorophenoxy)propyl](2-hydroxyethyl)amino}bicyclo[1.1.1]pentan-1-yl)acetamide]	250 to 500 nM
O=C(COc1ccc(Cl)cc1)NC12CCC(NC(=O)COc3ccc(Cl)cc3)(C1)C2 [Compound 176, N,N′-(bicyclo[2.1.1]hexane-1,4-diyl)bis[2-(4-chlorophenoxy)acetamide]]	10 to 50 nM
O=C(COc1ccc(Cl)c(Cl)c1)NC12CCC(NC(=O)OCc3ccccc3)(C1)C2 [Compound 193, benzyl {4-[2-(3,4-dichlorophenoxy)acetamido]bicyclo[2.1.1]hexan-1-yl}carbamate]	> 2000 nM
O=C(COc1ccc(Cl)c(F)c1)NC12CCC(NC(=O)COc3ccc(Cl)c(Cl)c3)(CC1)[C@@H](O)C2 [Compound 452, 2-(4-chloro-3-fluorophenoxy)-N-{(3S)-4-[2-(3,4-dichlorophenoxy)acetamido]-3-hydroxybicyclo[2.2.2]octan-1-yl}acetamide]	< 10 nM
O=C(COc1ccccn1)NC12CCC(NC(=O)COc3cccc(Cl)c3)(CC1)[C@@H](O)C2 [Compound 662, 2-(3-chlorophenoxy)-N-[(2S)-2-hydroxy-4-{2-[(pyridin-2-yl)oxy]acetamido}bicyclo[2.2.2]octan-1-yl]acetamide]	250 to 500 nM
O=C(COc1ccc(F)c(F)c1)NC12CCC(NC(=O)COc3ccc(C(F)(F)F)nc3)(CC1)C(O)C2 (stereo not drawn) [Compound 359, 2-(3,4-difluorophenoxy)-N-[3-hydroxy-4-(2-{[6-(trifluoromethyl)pyridin-3-yl]oxy}acetamido)bicyclo[2.2.2]octan-1-yl]acetamide]	10 to 50 nM

SMILES	EC50
O=C(COc1ccc(Cl)c(Cl)c1)NC12CCC(NC(=O)COc3ccc(Cl)c(Cl)c3)(CC1)C(=O)N2 [Compound 600, N,N′-(3-oxo-2-azabicyclo[2.2.2]octane-1,4-diyl)bis[2-(3,4-dichlorophenoxy)acetamide]]	< 10 nM
CCCS(=O)(=O)c1ccc(OCC(=O)NC23CCC(NC(=O)COc4ccc(Cl)c(F)c4)(CC2)C[C@@H]3O)cc1 [Compound 522, 2-(4-chloro-3-fluorophenoxy)-N-[(3S)-3-hydroxy-4-{2-[4-(propane-1-sulfonyl)phenoxy]acetamido}bicyclo[2.2.2]octan-1-yl]acetamide]	> 2000 nM
CCc1cc(COCC23CC(NC(=O)COc4ccc(Cl)c(F)c4)(C2)C3)on1 [Compound 610, 2-(4-chloro-3-fluorophenoxy)-N-(3-{[(3-ethyl-1,2-oxazol-5-yl)methoxy]methyl}bicyclo[1.1.1]pentan-1-yl)acetamide]	> 2000 nM
O=C(COc1ccc(Cl)c(F)c1)NC12CCC(NCCCOc3ccc(Cl)c(F)c3)(CC1)[C@@H](O)C2 [Compound 703, 2-(4-chloro-3-fluorophenoxy)-N-[(3S)-4-{[3-(4-chloro-3-fluorophenoxy)propyl]amino}-3-hydroxybicyclo[2.2.2]octan-1-yl]acetamide]	< 10 nM
O=C(/C=C/c1ccccn1)NC12CC(NC(=O)COc3ccc(Cl)c(F)c3)(C1)C2 [Compound 349, (2E)-N-{3-[2-(4-chloro-3-fluorophenoxy)acetamido]bicyclo[1.1.1]pentan-1-yl}-3-(pyridin-2-yl)prop-2-enamide]	500 to 2000 nM
N#Cc1ccc(COCC(=O)NC23CC(NC(=O)COc4ccc(Cl)c(Cl)c4)(C2)C3)cc1 [Compound 159, 2-[(4-cyanophenyl)methoxy]-N-{3-[2-(3,4-dichlorophenoxy)acetamido]-bicyclo[1.1.1]pentan-1-yl}acetamide]	50 to 250 nM
COc1ncc(OCC(=O)NC23CCC(NC(=O)COc4ccc(F)cc4)(CC2)[C@@H](O)C3)cn1 [Compound 631, 2-(4-fluorophenoxy)-N-[(2S)-2-hydroxy-4-{2-[(2-methoxypyrimidin-5-yl)oxy]acetamido}bicyclo[2.2.2]octan-1-yl]acetamide]	50 to 250 nM
O=C(COc1ccc(S(F)(F)(F)(F)F)cc1)NC12CC(NC(=O)COc3ccc4c(c3)OC(F)(F)O4)(C1)C2 [Compound 278, 2-[(2,2-difluoro-2H-1,3-benzodioxol-5-yl)oxy]-N-(3-{2-[4-(pentafluoro-λ^6-sulfanyl)phenoxy]acetamido}bicyclo[1.1.1]pentan-1-yl)acetamide]	10 to 50 nM
O=C(COc1ccc(Cl)c(F)c1)NC12CCC(NC(=O)COc3cncc(C(F)(F)F)c3)(CC1)C(O)C2 (stereo not drawn) [Compound 306, 2-(4-chloro-3-fluorophenoxy)-N-[3-hydroxy-4-(2-{[5-(trifluoromethyl)pyridin-3-yl]oxy}acetamido)bicyclo[2.2.2]octan-1-yl]acetamide]	< 10 nM
O=C(COc1ccc(Cl)c(F)c1)NC12CCC(NC(=O)Cc3cccc(OC(F)(F)F)c3)(CC1)C(O)C2 (stereo not drawn) [Compound 327, 2-(4-chloro-3-fluorophenoxy)-N-(3-hydroxy-4-{2-[3-(trifluoromethoxy)phenyl]acetamido}bicyclo[2.2.2]octan-1-yl)acetamide]	> 2000 nM
CN(CCCOc1ccc(Cl)cc1)C12CCC(NC(=O)COc3ccc(Cl)c(F)c3)(CC1)[C@@H](O)C2 [Compound 696, 2-(4-chloro-3-fluorophenoxy)-N-[(2S)-4-{[3-(4-chlorophenoxy)propyl](methyl)amino}-2-hydroxybicyclo[2.2.2]octan-1-yl]acetamide]	10 to 50 nM
O=C(COc1ccc(Cl)c(F)c1)NC12CC(NC(=O)Oc3ccc(Cl)cc3)(C1)C2 [Compound 434, 4-chlorophenyl {3-[2-(4-chloro-3-fluorophenoxy)acetamido]bicyclo[1.1.1]pentan-1-yl}carbamate]	250 to 500 nM
Cc1cc(OCC(=O)NC23CCC(NC(=O)COc4ccc(Cl)c(C)c4)(CC2)[C@@H](O)C3)ccc1Cl [Compound 525, N,N′-[(2S)-2-hydroxybicyclo[2.2.2]octane-1,4-diyl]bis[2-(4-chloro-3-methylphenoxy)acetamide]]	< 10 nM
O=C(COc1ccc(Cl)c(F)c1)NC12CCC(NC(=O)COc3ccc(Cl)c(F)c3)(C[C@H]1O)[C@@H](O)C2 (racemic) [Compound 557, rac-N,N′-[(2R,5S)-2,5-dihydroxybicyclo[2.2.2]octane-1,4-diyl]bis[2-(4-chloro-3-fluorophenoxy)acetamide]]	< 10 nM
COc1ncc(OCC(=O)NC23CCC(NC(=O)COc4cnc(OC)nc4)(CC2)[C@@H](O)C3)cn1 [Compound 626, N,N′-[(2S)-2-hydroxybicyclo[2.2.2]octane-1,4-diyl]bis{2-[(2-methoxypyrimidin-5-yl)oxy]acetamide}]	> 2000 nM
O=C(COCc1ccc(C(F)(F)F)nc1)NC12CC(NC(=O)COc3ccc(Cl)c(F)c3)(C1)C2 [Compound 284, 2-(4-chloro-3-fluorophenoxy)-N-[3-(2-{[6-(trifluoromethyl)pyridin-3-yl]methoxy}acetamido)bicyclo[1.1.1]pentan-1-yl]acetamide]	10 to 50 nM
